# Measurements reported in patent US20090304756A1, “Method for the Encapsulation and Controlled Release of Poorly Water-Soluble (Hyprophobic) Liquid and Solid Active Ingredients” (priority 2005, published 2009).
# Key:
# [1] = Amount of imidacloprid in particles, release into excess methanol with UV/vis analysis of supernatant; type: physicochemical; conditions: silica templates 5 μm, pore 6 nm, PSS/PAH coated; released in large excess of methanol
# Protocol: 25 mg of the somewhat water-soluble active ingredient imidacloprid were dissolved in 3 ml of acetone, and 100 mg of spherical, porous silica templates (diameter 5 μm, pore size 6 nm) were added. After incubation for 30 min, water was added stepwise until the solution reached saturation of imidacloprid, evident from further considerable cloudiness. The supernatant was centrifuged off and the particles were suspended with 1% SDS solution. In this connection, here and in all of the following washing and coating solutions, imidacloprid saturated solutions were used in order to prevent a dissolving out from the particles. After the coating with PSS and PAH (analogously to Example 1), separate particles filled with 15% m/m (mass of imidacloprid/mass of particles) were obtained (FIG. 3). The amount of imidacloprid was determined by releasing the active ingredient in a large excess in methanol with subsequent UV/vis spectroscopic analysis of the supernatant.
# [2] = Perylene concentration in particle interior by confocal fluorescence microscopy; type: physicochemical; conditions: C18 silica templates 5 μm, pore 6 nm, PAH/PSS LbL coated; self-quenching may feign lower concentration
# Protocol: 12.5 mg of the model dye perylene were dissolved in 6 ml of chloroform. A suspension of 100 mg of spherical, porous silica templates (diameter 5 μm, pore size 6 nm) in 1 ml of chloroform was added thereto. The surface of the templates is hydrophobically modified with C18 alkyl chains (RP 18, chromatography material). The solvent was evaporated at 40° C. in a drying cabinet with stirring. The powder which remained was resuspended in water with the help of 1% sodium dodecyl sulphate (SDS). […] Besides the fluorescence of the perylene in the particles, a few larger (and lighter) crystals of the pure dye can also be seen which no longer arise when using smaller fill amounts. The SDS solution was centrifuged off and the particles were incubated with 500 μl of a solution of 1 g/l Cy5 labelled poly(allylamine hydrochloride) (PAH-Cy5, MW 70000 g/mol), pH 6.5 and 0.5 M NaCl for 20 min with brief application of ultrasound. After washing the particles three times with water, 500 μl of a solution of 1 g/l of poly(sodium 4-styrenesulphonate) (PSS, MW 70000 g/mol) in 0.5 M NaCl with pH 6.1 are added. […]
# The concentration of the perylene in the interior of the particles was determined via the fluorescence by confocal microscopy by reference to comparison solutions. […]
Structure (SMILES),filling (mass of imidacloprid/mass of particles) [1] [% m/m],concentration of perylene in the interior of the particles [2]
O=[N+]([O-])NC1=NCCN1Cc1ccc(Cl)nc1 [imidacloprid],15,
c1cc2cccc3c4cccc5cccc(c(c1)c23)c54 [perylene],,8.5 mg of perylene per 100 mg of particles
